Reference: patent US20230338307A1, “PROPHYLACTIC AGENT, AMELIORATING AGENT, AND THERAPEUTIC AGENT FOR DRY EYE” (TSUBOTA LABORATORY, INC., priority 2020, published 2023)

What was measured:
[1] = test system: dry eye model; assay: Tear film breakup time (BUT) test, dry eye model by erlotinib instillation (Example 1); type: in vivo; conditions: 0.003% (w/v) apocynin in PBS, 3 μL twice daily, two weeks after start of instillation; erlotinib-instilled C57BL6 mice; FIG. 1
From the text: (§1) After acclimating male C57BL6 mice (7 weeks old) to the experimental environment, those with almost uniform body weight values and no eye abnormalities were divided into the following 3 groups (n=5). • 7 weeks old/normal (non-dry eye group) • 7 weeks old/dry eye model+control (solvent eye drop) group • 7 weeks old/dry eye model+apocynin eye drop group The dry eye model was created by daily instillation of an EGF receptor inhibitor (erlotinib) based on the method of Yang et al. In this model, administration of erlotinib causes dry eye symptoms such as shortened BUT, decreased tear volume, and corneal damage after 1 week of administration (Non-patent Document 3). After 20 μM of erlotinib was instilled for 2 weeks, the control group received PBS alone, and the test group received 3 μL of a suspension of 0.003% (w/v) apocynin in PBS twice daily. Two weeks after the start of instillation, 1 μL of 0.1% sodium fluorescein solution was instilled into each of both eyes under isoflurane anesthesia, and a BUT test was performed using a slit lamp (Kowa Co., Ltd., SL-17) (FIG. 1). […] Under anesthesia, the tip of a Schirmer test paper cut to 1 mm width was inserted into the conjunctival sac of the lower eyelid of the mouse, the test paper was removed after 5 minutes, the length of the wetted part was read in units of 0.5 mm, and the value was used as the tear volume (FIG. 2).

[2] = test system: dry eye model; assay: Schirmer test (tear volume), dry eye model by erlotinib instillation (Example 1); type: in vivo; conditions: 0.003% (w/v) apocynin in PBS, 3 μL twice daily, two weeks after start of instillation; erlotinib-instilled C57BL6 mice; FIG. 2
From the text: as §1

[3] = test system: meibomian glands; assay: Meibomian gland silhouette and area, dry eye model by systemic erlotinib (Example 3); type: in vivo, mice; conditions: 0.003% (w/v) apocynin eye drop, 2 weeks after start of instillation
Procedure: After acclimating male C57BL6 mice (7 weeks old) to the experimental environment, those with almost uniform body weight values and no eye abnormalities were divided into the following 3 groups (n=4). • 7 weeks old/normal (non-dry eye group) • 7 weeks old/dry eye model+control (solvent eye drop) group • 7 weeks old/dry eye model+apocynin eye drop group The dry eye model was prepared by dissolving erlotinib at a concentration of 5 mg/ml in 0.5% methylcellulose solution and administering it by intraperitoneal injection at a concentration of 50 mg/kg/day daily from the start of the study. The solvent 0.5% methylcellulose solution was similarly administered to the normal non-administration group. After one week of administration of erlotinib, the control group received PBS alone, and the test group received a solution of 0.003% (w/v) apocynin suspended in PBS twice a day at both eyes with 3 μL each. One week after the start of instillation, 1 μL of 0.1% sodium fluorescein solution was instilled into each of both eyes under isoflurane anesthesia, and the BUT test was performed under a blue filter using a slit lamp (Kowa Co., Ltd., SL-17) (FIG. 5). […] In addition, the image analysis software ImageJ was used to quantify the area of the meibomian gland silhouette image of the upper eyelid image (FIG. 7).

[4] = test system: dry eye model; assay: Schirmer test (tear volume), benzalkonium chloride dry eye model, Comparative Study 1 (Example 4); type: in vivo, mice; conditions: 0.1% (w/v) apocynin in 0.5% methylcellulose twice a day, 3 days after start; versus 0.5% (w/v) hyaluronic acid group; FIG. 8
Procedure: After acclimating male C57BL6 mice (7 weeks old) to the experimental environment, those with almost uniform weight values and no eye abnormalities were divided into the following groups (n=4). • 7 weeks old/normal (non-dry eye group) • 7 weeks old/dry eye model+control (solvent eye drop) group • 7 weeks old/dry eye model+0.1% (w/v) apocynin eye drop group • 7 weeks old/dry eye model+0.5% (w/v) hyaluronic acid eye drop group A dry eye model was prepared by instilling the benzalkonium chloride solution at 3 μL each eye, twice a day for 8 days. After that, the control group received the 0.5% methylcellulose solution alone, and the test group received 0.1% (w/v) apocynin or 0.5% (w/v) hyaluronic acid suspended in the 0.5% methylcellulose solution twice a day for 15 days at 3 μL for each of both eyes. Schirmer's test was performed 1, 3, 6, and 8 days after the start of instillation of the comparative test drug, and tear volume was evaluated.

[5] = test system: dry eye model; assay: Schirmer test (tear volume), 0.2% benzalkonium chloride dry eye model, Comparative Study 2 (Example 5); type: in vivo, mice; conditions: 2 days after start, compared to hyaluronic acid and diquafosol sodium groups, FIG. 10
From the text: (§2) After acclimating male C57BL6 mice (7 weeks old) to the experimental environment, those with almost uniform weight values and no eye abnormalities were divided into the following groups (n=3 to 4). • 7 weeks old/normal (non-dry eye group) • 7 weeks old/dry eye model+control (solvent eye drop) group • 7 weeks old/dry eye model+0.003% (w/v) apocynin eye drop group • 7 weeks old/dry eye model+0.03% (w/v) apocynin eye drop group • 7 weeks old/dry eye model+3% diquafosol sodium eye drop group • 7 weeks old/dry eye model+0.5% (w/v) hyaluronic acid eye drop group A dry eye model was created by instilling 3 μL of the 0.2% benzalkonium chloride solution into each of both eyes twice a day for 8 days. Then, the control group received PBS alone, and the test group received 0.003% (w/v), 0.03% (w/v) apocynin and 0.5% (w/v) hyaluronic acid in PBS. The 3% diquafosol sodium eye drop was instilled into each of both eyes at 3 μL, twice a day for 9 days. Two days after the start of instillation of the comparative test drug, the Schirmer test was performed to evaluate the tear volume.

[6] = test system: dry eye model; assay: Fluorescein staining score, 0.2% benzalkonium chloride dry eye model, Comparative Study 2 (Example 5); type: in vivo, mice
From the text: as §2, with “In Example 5, 1, 2, 5, and 9” for “Two”, “drug, 1 μL of 0.1% sodium fluorescein solution was instilled into each of both eyes. Fluorescein-stained images were observed under a blue filter using a slit lamp (Kowa Co., Ltd., SL-17), and” for “drug,”, “degree of corneal epithelial damage” for “Schirmer test”, “scored.” for “performed to evaluate the tear volume.”

For `COc1cc(C(C)=O)ccc1O` [apocynin, 4-hydroxy-3-methoxyacetophenone], the “tear film breakup time (BUT)” value [1] was “improved the shortening of BUT”, the “tear volume (Schirmer test)” value [2] was “improved” and the “missing parts of meibomian glands (silhouette image of upper eyelid)” value ([3]; FIG. 7A) was “reduced the missing parts”. The “meibomian gland silhouette area (atrophy of the meibomian glands)” value ([3]; ImageJ, FIG. 7B) was “significantly inhibits atrophy of the meibomian glands”, the “tear volume (Schirmer test)” value [4] was “marked improvement in the tear volume compared to the hyaluronic acid eye drop group” and the “tear volume (Schirmer test)” value ([5]; 0.003% apocynin eye drop) was “significantly improved”. For the same compound, the “tear volume (Schirmer test)” value ([5]; 0.03% apocynin eye drop) was “significantly improved”, the “fluorescein staining score (corneal epithelial damage)” value (from here on “fluorescein staining score”) ([6]; 0.003% apocynin eye drop, 9 days after start, compared to control, hyaluronic acid and diquafosol sodium groups, FIG. 11B) was “significantly improved” and the “fluorescein staining score” value ([6]; 0.03% apocynin eye drop, 9 days after start, compared to control, hyaluronic acid and diquafosol sodium groups, FIG. 11B) was “significantly improved”. For the same compound, the “fluorescein staining score” value ([6]; two days after start, compared with control, 0.03% apocynin, 0.5% (w/v) hyaluronic acid or 3% diquafosol sodium twice a day, FIG. 11A) was “decreased significantly”.
